Experiments:
HCT116 cells [1] = assay: HCT116 cell migration and invasion (Transwell); assay type: cell-based, human; conditions: AOAA 1 mM, fibroblast-conditioned media
Description: FIG. 3. […] (A, B) The lentiviral shRNA vectors targeting CBS (shCBS) and CSE (shCSE) were transfected into HCT116 cells. A non-targeting sequence was used as control (shNT). […] Following CBS and CSE silencing, cells were seeded at the density of 3000 cells/well in xCELLigence plates and proliferation was monitored for 36 hours. […] The NCM356 cells were infected overnight with a CBS expressing adenovirus (Ad-CBS, 10 multiplicity of infection (MOI)) or its control, a green fluorescent protein (Ad-GFP). The culture media was then replaced and cells were seeded in XCelligence plates at 3000 cells/well. Cell proliferation was then measured real-time over 36 hours. […] (H, I) The effect of AOAA and NaHS was also tested on HCT116 cell migration (H) and invasion (I). Cells were pretreated either with vehicle or AOAA (1 mM) and seeded in serum-free DMEM (0.1% albumin) in the upper chamber of a trans-well insert uncoated (migration assay) or coated with growth factor reduced matrigel (invasion assay). Migration and invasion were stimulated by fibroblast-conditioned media in the lower chamber for 6 and 24 hours, respectively. […] (J) In a co-culture of human endothelial cells (EAhy926) and colon cancer cells (HCT116), HCT 116 cells were seeded in the lower chamber of a trans-well insert and cultured to confluence. Endothelial cells were then seeded into the upper chamber in serum-free DMEM and allowed to migrate for 4 hours at 37° C. […] Western blots are representative of at least three independent experiments; proliferation/migration/invasion assays and H2S measurements represent mean±SEM of n=3 determinations.
Cellular migration and invasion assays were performed as described (Chao et al. (1996) Cancer Res. 56:4811-19). Briefly, 10^5 cells were suspended in serum-free media containing 0.1% BSA and then added to 6.5 mm Transwell chambers ([…]) uncoated (migration assay) or coated with a thin layer (45 μl) of growth factor reduced matrigel (cell invasion assay). Cells were allowed to migrate toward the bottom chamber containing fibroblast (NIH-3T3 cells) conditioned media at 37° C. for 6 or 24 h for cell migration and invasion, respectively. Migrated and invaded cells were then fixed in Carson's fixative, stained in 0.33% toluidine blue and quantified by visual counting. For the HCT116-EAhy926 co-culture experiment, the cancer cell line was grown to confluence in the bottom wells of the transwell chambers and then endothelial cell migration was assessed (Coletta et al. (2012) Proc Natl Acad Sci USA. 109:9161-66).

[2] = system: human endothelial cells (EAhy926); assay: Endothelial cell migration in co-culture with HCT116; assay type: cell-based; conditions: 4 hours at 37° C.
Description: FIG. 3. […] (A, B) The lentiviral shRNA vectors targeting CBS (shCBS) and CSE (shCSE) were transfected into HCT116 cells. A non-targeting sequence was used as control (shNT). […] Following CBS and CSE silencing, cells were seeded at the density of 3000 cells/well in xCELLigence plates and proliferation was monitored for 36 hours. […] The NCM356 cells were infected overnight with a CBS expressing adenovirus (Ad-CBS, 10 multiplicity of infection (MOI)) or its control, a green fluorescent protein (Ad-GFP). The culture media was then replaced and cells were seeded in XCelligence plates at 3000 cells/well. Cell proliferation was then measured real-time over 36 hours. […] (H, I) The effect of AOAA and NaHS was also tested on HCT116 cell migration (H) and invasion (I). […]
Cellular migration and invasion assays were performed as described (Chao et al. (1996) Cancer Res. 56:4811-19). […] Migrated and invaded cells were then fixed in Carson's fixative, stained in 0.33% toluidine blue and quantified by visual counting. For the HCT116-EAhy926 co-culture experiment, the cancer cell line was grown to confluence in the bottom wells of the transwell chambers and then endothelial cell migration was assessed (Coletta et al. (2012) Proc Natl Acad Sci USA. 109:9161-66).

HCT116 cells [3] = assay: Bioenergetic analysis in intact cells (XF24 Extracellular Flux Analyzer); assay type: cell-based, human; conditions: AOAA 1 mM
Description: The XF24 Extracellular Flux Analyzer (Seahorse Bioscience, Billerica, Mass.) was used to measure bioenergetic function as described in Módis et al. ((2013) FASEB J 27:601-11) and Wu et al. ((2007) Am J Physiol Cell Physiol. 292:C125-36). Oxygen consumption rate (OCR) after oligomycin (1.5 μg/ml) was used to assess ATP production rate and OCR after FCCP (0.5 μM) to assess maximal mitochondrial respiratory capacity. 2-deoxyglucose (100 mM) was used to estimate cellular glycolytic dependency and antimycin A (2 μg/m) and rotenone (2 μM) were used to inhibit the flux of electrons through complex III and I, to detect residual non-mitochondrial activity. For the measurement of glycolytic parameters, the changes in proton production rate (PPR) were monitored in response to the sequential administration of D-glucose (10 mM), oligomycin (1.5 μM) and 2-deoxyglucose (100 mM), to assess glycolysis, maximal glycolytic capacity, glycolytic reserve capacity, and non-glycolytic acidification rate, respectively. GAPDH activity was determined by a kinetic assay (ScienCell, Carlsbad, Calif.).

HCT116 tumor xenografts = assay: HCT116 tumor xenograft in nude mice; assay type: in vivo, Nu/nu Balb/C female mice; conditions: AOAA 9 mg/kg/day s.c.
Description: Nu/nu Balb/C female mice (8-10 weeks) were injected subcutaneously in the right and left dorsum (10^6 cells/side with HCT-116 cells). One week later, the mice were randomized and subcutaneous injections of phosphate buffered saline (PBS) or AOAA (9 mg/kg/day) were performed 6 days/week. Tumor diameters were measured transcutaneously using calipers and tumor volumes were calculated using the formula V=(π/6)hd^2. T-test comparisons of the tumor volumes and final weights at harvest were performed. Xenotrials with patient-derived xenografts (PTX) were performed on nu/nu mice implanted subcutaneously with a piece of Passage 2 tumor measuring 2-5 mm^3 each. When a small palpable tumor was evident at 7-10 days, the mice with tumor take were randomized and subjected to subcutaneous injection of vehicle or AOAA (9 mg/kg/day) 6 days/week. Specimens were fixed with 10% formalin and embedded in paraffin. 5 μm sections were stained with hematoxylin and eosin. Each in vivo experiment was repeated at least twice.
Tissue preparation, immunostaining of CD31, and evaluation of microvessel density with the Chakley reticle was performed as described (Chao et al. (1996) Cancer Res. 56:4811-19).
Nu/nu Balb/c female mice (8-10 weeks) were injected subcutaneously in the right and left dorsum (10^6 cells/side with HCT116 cells). One week later, the mice were randomized and subcutaneous injection of phosphate buffered saline (PBS control) or YD2-51 (0.1, 0.5 or 1 mg/kg) was performed 6 days/week. Tumor volumes and final weights at harvest (post-tumor injection Day 28) were performed and tumor weight/animal weight ratios calculated.

Compound: NOCC(=O)O [AOAA, aminooxyacetic acid]
- HCT116 cell migration (HCT116 cells [1]; 6 hours): markedly reduced
- HCT116 cell invasion (HCT116 cells [1]; matrigel, 24 hours): markedly reduced
- HCT116-induced endothelial cell migration [2]: reduced
- basal OCR, calculated ATP production, maximal respiration and Spare Respiratory Capacity (HCT116 cells [3]): significantly decreased
- maximal glycolytic capacity and glycolytic reserve capacity (HCT116 cells [3]): significantly diminished
- rate of HCT116 xenograft growth (HCT116 tumor xenografts; 6 days/week): significantly slowed
- tumor size and weight at harvest (HCT116 tumor xenografts; 6 days/week): reduced size and weight
- plasma concentration of H2S (HCT116 tumor xenografts; tumor-bearing mice): reduction

Source: US10335382B2, “Use of hydrogen sulfide synthesis inhibitors for cancer therapy” (THE BOARD OF REGENTS OF THE UNIVERSITY OF TEXAS SYSTEM, priority 2013, dated 2019)
